Article PMC9266914, “Broad Spectrum Functional Activity of Structurally Related Monoanionic Au(III) Bis(Dithiolene) Complexes” (International Journal of Molecular Sciences, 2022)

Tests used:
[1] = tested on: P. falciparum NF54 blood stage; assay: In vitro activity against the blood stage of P. falciparum NF54 (SYBR green flow cytometry); format: cell-based, Plasmodium falciparum; conditions: 48 h, read-out: IC50 PfNF54
Experimental: Ring-stage synchronized cultures of PfNF54 at 2.5% hematocrit and at approximately 1% parasitemia were incubated with gold complexes or DMSO (vehicle control) in 96 well-plates, for 48 h, at 37 °C in a 5% CO2 and 5% O2 atmosphere. Stock solutions of Chloroquine (positive control), [P][AuSEt(=S)] and [P][AuSEt(=Se)] were prepared in DMSO. Working solutions were prepared from the stock solutions in complete malaria culture medium (CMCM), which consists of RPMI 1640 supplemented with 25 mM HEPES, 2.4 mM L-glutamine, 50 μg/mL gentamicin, 0.5% w/v Albumax, 11 mM glucose, 1.47 mM hypoxanthine and 37.3 mM NaHCO3. For each measurement, 5 µL of the culture (approximately 800,000 cells) was stained with the DNA-specific dye SYBR green I at 1×. After 20 min of incubation, in the dark, the stained sample was analyzed by flow cytometry. For each flow cytometric measurement, approximately 100,000 events were analyzed. All samples were analyzed in triplicate and two independent experiments were performed.

[2] = tested on: A2780 ovarian cancer cells; design: method as in PMID 32391537; conditions: 48 h incubation, MTT; starred values; read-out: IC50 A2780, 48 h; cited from earlier work
[3] = Cyclic voltammetry; format: physicochemical; conditions: CH2Cl2, NBu4PF6
Excerpt: The redox properties of the various gold(III) bis(dithiolene) and bis(diselenolene) complexes were investigated by cyclic voltammetry using the same conditions, dichloromethane solutions and NBu4PF6 as supporting electrolyte. Under these conditions, the nature of the counter-ion, Ph4P^+ or Et4N^+, had no influence on the redox properties observed, due to ion exchange with the Bu4N^+ of the supporting electrolyte. Thus, only the result of one monoanion is included in Table 1, even if the two salts were analyzed. For all the investigated monoanionic bis(dithiolene) complexes, three redox processes are observed on the cyclic voltammograms. On the anodic scan, the two oxidation waves correspond to the oxidation of the monoanionic species into the neutral and to the monocationic complex. Most of these complexes had the tendency to deposit on the electrode once oxidized and frequently a strong desorption peak was observed on the reversible scan. This phenomenon occurs essentially for the complex with an exocyclic sulfur atom, [AuSR(=S)]^−1. On the cathodic scan, an irreversible process associated with the reduction in the monoanion into the dianion occurs (Scheme 2). […] The presence of oxygen instead of sulfur makes the oxidation of the monoanionic into the neutral species easier. On the other hand, the presence of electron-withdrawing substituents such as =C(CN)2 induces an anodic shift of the oxidation potentials by 300 mV, compared with the =O derivative, leading to a monoanion which is more difficult to oxidize than the other complexes of the series. […] Indeed, the potential difference between the second and the first oxidation potentials amounts to 470 mV and 410 mV for the =O and the =C(CN)2 derivatives, respectively, while for the =S analogues this value is smaller (170 mV). […] For comparison, we also investigated the redox behavior of Auranofin using the same experimental conditions in CH2Cl2 in the presence of NBu4PF6 as a supporting electrolyte. Using these conditions, upon anodic scan only one irreversible oxidation process is observed at 1.42 V vs. SCE. Therefore, all these monoanionic gold bis(dithiolene) and bis(diselenolene) complexes are easier to oxidize than Auranofin.
All reagents and materials from commercial sources were used without further purification. NMR spectra were recorded at room temperature using CDCl3 unless otherwise stated (Figures S7–S15). Chemical shifts are reported in ppm and ^1H NMR spectra were referenced to residual CHCl3 (7.26 ppm) and ^13C NMR spectra were referenced to CHCl3 (77.2 ppm). Mass spectra were recorded with an Agilent 6510 instrument for organics compounds and with a Thermo-Fisher Q-Exactive instrument for complexes by the Center Régional de Mesures Physiques de l’Ouest, Rennes. Cyclic voltammograms (CV)s were carried out on a 10^−3 M solution of complex in CH2Cl2-[NBu4] [PF6] 0.1 M. CVs were recorded on a Biologic SP-50 instruments at 0.1 Vs^−1 on a platinum disk electrode. Potentials were measured versus KCl Saturated Calomel Electrode (SCE). Column chromatography was performed using silica gel Merck 60 (70–260 mesh). The solvents were purified and dried by standard methods. The proligand 2-SEt(=C(CN2)), [72] and complexes [N][AuSMe(=S)], [73] [N][AuSEt(=S)], [74] [P][AuSEt(=O)], [75] [N][AuSeEt(=S)] [75] and [P][AuSPr(=S)] [76] were synthesized according to the previously reported procedure.

Row | SMILES | IC50 [1] | IC50 [2] | irreversible oxidation process (anodic scan) [3]
1 | CCn1c2c(sc1=[Se])[S][Au-]1([S]c3sc(=[Se])n(CC)c3[S]1)[S]2.c1ccc([P+](c2ccccc2)(c2ccccc2)c2ccccc2)cc1 [[P][AuSEt(=Se)]] | 1000 ± 391 nM |  | 
2 | CCn1c2c(sc1=S)[S][Au-]1([S]c3sc(=S)n(CC)c3[S]1)[S]2.c1ccc([P+](c2ccccc2)(c2ccccc2)c2ccccc2)cc1 [[P][AuSEt(=S)]] | 1060 ± 393 nM |  | 
3 | CC(=O)OC[C@H]1O[C@@H]([S-])[C@H](OC(C)=O)[C@@H](OC(C)=O)[C@@H]1OC(C)=O.CCP(CC)CC.[Au+] [Auranofin, reference compound] |  | 430 ± 270 nM | 1.42 V vs. SCE
